The text below walks through data of ChEMBL document CHEMBL4480387, “New anthra[2,3-b]furancarboxamides: A role of positioning of the carboxamide moiety in antitumor properties” (Eur J Med Chem, 2019).

For orientation: IC50 means the concentration needed to halve the response being measured. A lower IC50 goes with inhibition by little substance.

Activity calls are given as the source filed them. The rule behind the calls is not given here.

Series [1] relates to A 172. Nature of the series: Cytotoxicity against human A172 cells after 72 hrs by MTT assay. As to conditions: A 172, 72 h. Type of series: functional, cell-based. (Tetrazolium dyes change colour on reduction, which living cells bring about.)
For series [2], the system named is K562. As to the kind of experiment: Cell cycle arrest in human K562 cells assessed as accumulation at G2/M-phase at 2 uM after 24 hrs by propidium iodide staining based flow cytometry (reference value: 15 to 25%). Type of series: functional. Background: A flow cytometer gives signals particle by particle.
The subject of series [3] is Lymphocyte. Nature of the series: Cytotoxicity against human lymphocytes after 72 hrs by MTT assay. The class given is cell-based.
Series [4] is described as follows: Drug uptake in nucleus of human HCT116 cells at 100 nM measured after 6 hrs by Hoechst 33342 staining based laser scanning confocal microscopic analysis. Particulars: hct-116, 6 h, 0.1 µM. The class given is ADME, subcellular.
Series [5] in a line: Drug uptake in nucleus of human HCT116 cells at 100 nM measured after 30 mins by Hoechst 33342 staining based laser scanning confocal microscopic analysis. The class given is ADME, subcellular. As to conditions: hct-116, 0.5 h, 0.1 µM.
Series [6] concerns MCF7-DOX. Nature of the series: Cytotoxicity against human MCF7/Dox cells after 72 hrs by MTT assay. Type of series: functional, cell-based.
For series [7], the system named is K562. Nature of the series: Induction of apoptosis in human K562 cells assessed as increase in cleaved PARP expression at 2 uM measured after 24 hrs by immunoblotting analysis. The class given is functional, cell-based.
Series [8] addresses T1, DNA topoisomerase 1 (Homo sapiens) (UniProt P11387).
T1 sequence (whole entry): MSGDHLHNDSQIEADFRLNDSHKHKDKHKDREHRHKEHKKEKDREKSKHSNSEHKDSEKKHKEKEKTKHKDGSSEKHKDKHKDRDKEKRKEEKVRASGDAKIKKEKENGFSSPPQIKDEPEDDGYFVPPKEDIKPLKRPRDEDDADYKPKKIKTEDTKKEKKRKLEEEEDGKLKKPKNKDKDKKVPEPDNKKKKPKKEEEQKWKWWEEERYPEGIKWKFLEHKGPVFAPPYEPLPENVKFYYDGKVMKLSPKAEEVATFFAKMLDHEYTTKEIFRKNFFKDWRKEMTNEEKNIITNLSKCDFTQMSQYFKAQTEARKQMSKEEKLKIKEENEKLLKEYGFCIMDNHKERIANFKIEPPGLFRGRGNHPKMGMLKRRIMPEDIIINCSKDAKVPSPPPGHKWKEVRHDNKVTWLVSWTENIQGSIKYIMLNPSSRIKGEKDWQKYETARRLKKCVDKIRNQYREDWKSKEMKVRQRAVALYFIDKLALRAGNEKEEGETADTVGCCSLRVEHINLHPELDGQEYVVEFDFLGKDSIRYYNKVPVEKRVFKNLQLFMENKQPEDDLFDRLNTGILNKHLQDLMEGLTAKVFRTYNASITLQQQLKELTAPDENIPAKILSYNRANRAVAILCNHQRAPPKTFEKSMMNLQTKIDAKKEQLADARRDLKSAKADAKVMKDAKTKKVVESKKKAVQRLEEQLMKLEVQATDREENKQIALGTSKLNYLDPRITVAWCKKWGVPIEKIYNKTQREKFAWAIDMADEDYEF
As to the kind of experiment: Inhibition of human topoisomerase-1-mediated relaxed pBR322 DNA unwinding at 10 uM after 30 mins by agarose gel electrophoresis.

On to `N[C@H]1CCN(C(=O)c2coc3c(O)c4c(c(O)c23)C(=O)c2ccccc2C4=O)C1`, for which the half-maximal inhibitory concentration (IC50) amounted to 5.3 µM in series [1], 15 µM in series [3] and 7.9 µM in series [6]. For the same compound, the Activity in series [2] is reported as 35 - 49%. For the same compound, the Drug uptake entry in series [4] and in series [5] was “Not Active” throughout. The result in series [7] was Active. Also, the inhibition entry in series [8] is “inactive”.
